Experimental data as given in ChEMBL document CHEMBL1641378, “Understanding DP receptor antagonism using a CoMSIA approach” (Bioorg Med Chem Lett, 2011).

Molecular target: T1, Prostaglandin D2 receptor (Homo sapiens, UniProt Q13258)
T1 sequence (Q13258 whole entry): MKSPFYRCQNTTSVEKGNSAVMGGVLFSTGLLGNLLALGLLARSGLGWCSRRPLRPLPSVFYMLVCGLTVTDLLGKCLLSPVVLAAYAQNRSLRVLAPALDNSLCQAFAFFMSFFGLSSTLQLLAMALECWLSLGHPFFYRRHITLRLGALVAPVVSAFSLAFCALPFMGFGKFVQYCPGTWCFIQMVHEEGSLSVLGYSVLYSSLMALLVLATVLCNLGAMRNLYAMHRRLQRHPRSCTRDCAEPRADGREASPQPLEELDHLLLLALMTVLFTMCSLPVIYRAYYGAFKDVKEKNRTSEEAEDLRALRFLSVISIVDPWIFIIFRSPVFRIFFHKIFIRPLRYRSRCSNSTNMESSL
Test: Antagonist activity at prostaglandin D2 receptor in human LS174T cells assessed as inhibition of PGD2-induced cAMP accumulation after 15 mins by scintillation proximity assay
Format: functional, cell-based

IC50: 4.47 nM
Structure (SMILES): COc1ccc(CCNc2cc(-c3ccc(F)c(/C=N/O)c3)nc(OC)n2)cc1
